Values quoted from earlier work as cited in article PMC3289745 (Peptides, 2011).

Tested on: conscious male rats
Details: central injection of neuronostatin; 30 minutes post-injection

Substance: neuronostatin
- increase in plasma AVP levels relative to saline-injected controls: 2–3 times
